Data as given in PMC5524571 (Molecular cell, 2012).

Assays:
Asp34 = Asp34 (UniProt position 34, TYIGNDMIQPG); test: fluorescence; conditions: Detergent-solubilised, folded; competition between TPP and protons
MdfA [1] = biological target: T1, MdfA (Escherichia coli, UniProt P0AEY8); conditions: several pH values (pH 6 to 8.5)
MdfA [2] = biological target: T1, MdfA; test: substrate-induced proton release from purified MdfA; type: binding; conditions: unbuffered solution, 2 µM MdfA, 500 µM EtBr

T1 sequence (P0AEY8 whole entry): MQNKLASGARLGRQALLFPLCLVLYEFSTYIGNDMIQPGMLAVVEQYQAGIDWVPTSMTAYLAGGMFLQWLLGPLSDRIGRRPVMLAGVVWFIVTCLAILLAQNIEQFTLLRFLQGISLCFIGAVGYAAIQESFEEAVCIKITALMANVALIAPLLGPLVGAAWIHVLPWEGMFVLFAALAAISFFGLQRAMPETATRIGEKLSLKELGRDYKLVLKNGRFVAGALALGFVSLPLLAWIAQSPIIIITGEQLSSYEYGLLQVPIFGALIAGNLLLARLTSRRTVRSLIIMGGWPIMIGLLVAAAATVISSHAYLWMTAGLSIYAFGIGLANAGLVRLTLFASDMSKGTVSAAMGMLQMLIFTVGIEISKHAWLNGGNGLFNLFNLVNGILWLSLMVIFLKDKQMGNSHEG

Multidrug transporter MdfA (wild type, His6-tagged) (Escherichia coli)
pKa (Asp34): 6.84 ± 0.06

c1ccc([P+](c2ccccc2)(c2ccccc2)c2ccccc2)cc1 [TPP]
dissociation constant (MdfA [1]): the affinity of purified, detergent-solubilized MdfA for its substrate tetraphenylphosphonium (TPP) was measured

CC[n+]1c(-c2ccccc2)c2cc(N)ccc2c2ccc(N)cc21 [ethidium bromide]
substrate-induced proton release from purified MdfA (pH electrode) (MdfA [2]): adding TPP or EtBr caused rapid acidification
